Results published in US8901118B2, “Compounds and methods for kinase modulation, and indications therefor” (Plexxikon Inc., priority 2010, dated 2014).
pIC50: −log10 of the molar value.

Tests used:
[1] = test system: Osteoclast precursor cells; experiment: Osteoclast differentiation assay (acid phosphatase readout); type: cell-based
Method: Further, an osteoclast differentiation assay is used to assess the efficacy of Fms inhibitors for treating bone disease such as osteoarthritis. On day 0, Osteoclast Medium BulletKit (Lonza catalog #PT-8001, containing Media, FBS, L-Glutamine, PenStrep, RANKL, and M-CSF) media is thawed and the FBS, L-glutamine and PenStrep from the kit is added to 100 mL of Osteoclast Precursor Basal medium to provide the Osteoclast Precursor Growth Medium (OPGM). This is warmed to 37° C. Osteoclast precursor cells (Lonza catalog #2T-110) frozen in cryovial are warmed to 37° C. and transferred to a 50 mL conical tube. The cryovial is rinsed with OPGM and added dropwise to the conical tube of cells with swirling, then the volume is adjusted to 20-30 mL with addition of OPGM. The cells are centrifuged at 200×g for 15 minutes at room temperature and all but approximately 3 mL of supernatant is removed to a new conical tube. The cells are suspended in the remaining supernatant and the volume is adjusted to 10-15 mL with OPGM added dropwise with swirling. The cells are centrifuged at 200×g for 15 minutes at room temperature and all but approximately 1 mL of supernatant is removed. The cells are resuspended in the remaining supernatant, counted, and the volume adjusted with an appropriate amount of OPGM to provide approximately 1×10^5 cells/mL. A 0.1 mL aliquot of cells is added to each well of a 96-well plate. Compound to be tested is prepared in DMSO for plating at a high concentration of 2.5 mM, with 8 point 1:3 serial dilutions. A 1 μL aliquot of each compound dilution is added to a 96 well v-bottom polypropylene plate and 0.124 mL of OPGM is added to the compound. Then 50 μL at of the compound in OPGM is added to the osteoclast precursor cells in 96-well plate (providing highest test concentration of 5 μM). RANKL (2 μg) from the BulletKit is reconstituted in 1 mL of OPGM, then vortexed and centrifuged briefly. A 792 μL at aliquot of RANKL is added to 6 mL of OPGM and 50 μL at is added to low control wells. Then 76.6 μL M-CSF (10 μg/mL) from the BulletKit is added to the remaining 5.8 mL of OPGM/RANKL solution (4×RANKL/M-CSF/OPGM). A 50 μL at aliquot of this is added to the remaining wells, and the remainder is stored at 4° C. for later use. The plate is incubated at 37° C. for 6 days, then the remaining OPGM/RANKL/M-CSF solution is warmed to 37° C. The remaining approximately 198 μL is combined with 6 mL of OPGM. The media is aspirated from the osteoclast wells and 100 μL of RANKL/OPGM is added to the low controls. The remaining RANKL/OPGM is combined with the approximately 18.5 μL of remaining M-CSF. The remaining 4×RANKL/M-CSF/OPGM from day 0 is diluted to 1× and combined with the freshly prepared solution. A 0.1 mL aliquot of this is added to each osteoclast well and incubated for 37° C. for 1 day. The Acid Phosphatase kit (Cayman Chemical catalog #10008051) is warmed to room temperature. The assay buffer is diluted 5 mL with 45 mL of water. For each plate, two substrate tablets are dissolved in 4.5 mL of the assay buffer, mixing by vortex to break up the tablet. Stop solution is diluted 12 mL with 36 mL of water. In a tissue culture hood, 20 μL of each osteoclast well supernatant is transferred to a 96 well plate. A 30 μL aliquot of the substrate solution is added to each well and incubated at 37° C. for 20 minutes, then added 100 μL stop solution to each well. The absorbance of each well is read at 405 nm on Safire plate reader. The absorbance reading is plotted vs. concentration to provide the IC50 for each compound.

[2] = Relative solubility by turbidity in aqueous buffers (pH 1.5, 4.5, 6.8, 7.4); type: physicochemical; settings: for turbidity threshold (L, M, H) 1.4: pH 1.5 (SGF); for turbidity threshold (L, M, H) 4.5: pH 4.5 (SIF); for turbidity threshold (L, M, H) 6.8: pH 6.8 (SIF); for turbidity threshold (L, M, H) 7.4: pH 7.4 (HEPES)
Method in brief: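 Twofold DMSO dilutions of a 25 mM stock were spiked into SGF (0.5M NaCl, pH 1.5), SIF (0.05M NaH2PO4, pH 4.5 and 6.8) or HEPES buffer (10 mM HEPES, 150 mM NaCl, pH 7.4). Absorbance was read at 490, 535 and 650 nm. The endpoint is the concentration crossing O.D. 0.01, averaged across wavelengths.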

Compound	pIC50 [1]	turbidity threshold (L, M, H) 1.4 [2]	turbidity threshold (L, M, H) 4.5 [2]	turbidity threshold (L, M, H) 6.8 [2]	turbidity threshold (L, M, H) 7.4 [2]
COc1ccc(Nc2ccc(Cc3c[nH]c4ncc(C)cc34)c(F)n2)cn1 [Compound P-3019, [6-fluoro-5-(5-methyl-1H-pyrrolo[2,3-b]pyridin-3-ylmethyl)-pyridin-2-yl]-(6-methoxy-pyridin-3-yl)-amine]	> 7.00	H (high solubility if the threshold concentration is >250 μm)	L (low solubility if the threshold concentration is <31.3 μM)	L (low solubility if the threshold concentration is <31.3 μM)	L (low solubility if the threshold concentration is <31.3 μM)
CCOc1ccc(Nc2ccc(Cc3c[nH]c4ncc(C)cc34)c(F)n2)cn1 [Compound P-3039, (6-ethoxy-pyridin-3-yl)-[6-fluoro-5-(5-methyl-1H-pyrrolo[2,3-b]pyridin-3-ylmethyl)-pyridin-2-yl]-amine]	> 7.00	H (high solubility if the threshold concentration is >250 μm)	M (moderate solubility if the threshold concentration is 31.3 μM to 250 μM)	M (moderate solubility if the threshold concentration is 31.3 μM to 250 μM)	M (moderate solubility if the threshold concentration is 31.3 μM to 250 μM)
COc1ccc(Nc2ccc(Cc3c[nH]c4ncnc(OC)c34)c(F)n2)cn1 [Compound P-4001, [6-Fluoro-5-(4-methoxy-7H-pyrrolo[2,3-d]pyrimidin-5-ylmethyl)-pyridin-2-yl]-(6-methoxy-pyridin-3-yl)-amine]	> 7.00	M (moderate solubility if the threshold concentration is 31.3 μM to 250 μM)	M (moderate solubility if the threshold concentration is 31.3 μM to 250 μM)	M (moderate solubility if the threshold concentration is 31.3 μM to 250 μM)	M (moderate solubility if the threshold concentration is 31.3 μM to 250 μM)
COc1ncnc2[nH]cc(Cc3ccc(Nc4ccc(C5CC5)nc4)nc3F)c12 [Compound P-4004, (6-Cyclopropyl-pyridin-3-yl)-[6-fluoro-5-(4-methoxy-7H-pyrrolo[2,3-d]pyrimidin-5-ylmethyl)-pyridin-2-yl]-amine]	> 7.00	M (moderate solubility if the threshold concentration is 31.3 μM to 250 μM)	M (moderate solubility if the threshold concentration is 31.3 μM to 250 μM)	L (low solubility if the threshold concentration is <31.3 μM)	L (low solubility if the threshold concentration is <31.3 μM)
CCOc1ccc(Nc2ccc(Cc3c[nH]c4ncnc(OC)c34)c(F)n2)cn1 [Compound P-4005, (6-Ethoxy-pyridin-3-yl)-[6-fluoro-5-(4-methoxy-7H-pyrrolo[2,3-d]pyrimidin-5-ylmethyl)-pyridin-2-yl]-amine]	> 7.00	M (moderate solubility if the threshold concentration is 31.3 μM to 250 μM)	L (low solubility if the threshold concentration is <31.3 μM)	L (low solubility if the threshold concentration is <31.3 μM)	L (low solubility if the threshold concentration is <31.3 μM)
CCOc1ccc(Nc2ccc(Cc3c[nH]c4ncnc(C)c34)c(F)n2)cn1 [Compound P-4006, (6-Ethoxy-pyridin-3-yl)-[6-fluoro-5-(4-methyl-7H-pyrrolo[2,3-d]pyrimidin-5-ylmethyl)-pyridin-2-yl]-amine]	> 7.00	H (high solubility if the threshold concentration is >250 μm)	L (low solubility if the threshold concentration is <31.3 μM)	L (low solubility if the threshold concentration is <31.3 μM)	L (low solubility if the threshold concentration is <31.3 μM)
CCc1ccc(Nc2ccc(Cc3c[nH]c4ncnc(OC)c34)c(F)n2)cn1 [Compound P-4007, (6-Ethyl-pyridin-3-yl)-[6-fluoro-5-(4-methoxy-7H-pyrrolo[2,3-d]pyrimidin-5-ylmethyl)-pyridin-2-yl]-amine]	> 7.00	M (moderate solubility if the threshold concentration is 31.3 μM to 250 μM)	L (low solubility if the threshold concentration is <31.3 μM)	L (low solubility if the threshold concentration is <31.3 μM)	L (low solubility if the threshold concentration is <31.3 μM)
CCOc1ccc(Nc2ccc(Cc3c[nH]c4ncnc(OCCOC)c34)c(F)n2)cn1 [Compound P-4008, (6-Ethoxy-pyridin-3-yl)-{6-fluoro-5-[4-(2-methoxy-ethoxy)-7H-pyrrolo[2,3-d]pyrimidin-5-ylmethyl]-pyridin-2-yl}-amine]	> 7.00	M (moderate solubility if the threshold concentration is 31.3 μM to 250 μM)	M (moderate solubility if the threshold concentration is 31.3 μM to 250 μM)	M (moderate solubility if the threshold concentration is 31.3 μM to 250 μM)	M (moderate solubility if the threshold concentration is 31.3 μM to 250 μM)
CCc1ccc(Nc2ccc(Cc3c[nH]c4ncnc(C)c34)c(F)n2)cn1 [Compound P-4009, (6-Ethyl-pyridin-3-yl)-[6-fluoro-5-(4-methyl-7H-pyrrolo[2,3-d]pyrimidin-5-ylmethyl)-pyridin-2-yl]-amine]	> 7.00	H (high solubility if the threshold concentration is >250 μm)	M (moderate solubility if the threshold concentration is 31.3 μM to 250 μM)	L (low solubility if the threshold concentration is <31.3 μM)	L (low solubility if the threshold concentration is <31.3 μM)
COc1ncnc2[nH]cc(Cc3ccc(Nc4ccc(C)nc4)nc3F)c12 [Compound P-4010, [6-Fluoro-5-(4-methoxy-7H-pyrrolo[2,3-d]pyrimidin-5-ylmethyl)-pyridin-2-yl]-(6-methyl-pyridin-3-yl)-amine]	> 7.00	H (high solubility if the threshold concentration is >250 μm)	M (moderate solubility if the threshold concentration is 31.3 μM to 250 μM)	L (low solubility if the threshold concentration is <31.3 μM)	L (low solubility if the threshold concentration is <31.3 μM)
CCn1cc(Nc2ccc(Cc3c[nH]c4ncnc(OC)c34)c(F)n2)cn1 [Compound P-4011, (1-Ethyl-1H-pyrazol-4-yl)-[6-fluoro-5-(4-methoxy-7H-pyrrolo[2,3-d]pyrimidin-5-ylmethyl)-pyridin-2-yl]-amine]	> 7.00	M (moderate solubility if the threshold concentration is 31.3 μM to 250 μM)	M (moderate solubility if the threshold concentration is 31.3 μM to 250 μM)	M (moderate solubility if the threshold concentration is 31.3 μM to 250 μM)	M (moderate solubility if the threshold concentration is 31.3 μM to 250 μM)
